Data as given in patent US20250041367A1, “BACTERIOPHAGES AND USE THEREOF FOR THE TREATMENT OR PREVENTION OF INFECTION CAUSED BY E. COLI” (Purdue Research Foundation, priority 2023, published 2025).

Legend:
[1] = system: all other bacteria in the cecal samples; experiment: Chicken cecal samples on sorbitol-MacConkey agar supplemented with antibiotics; format: cell-based; conditions: streptomycin 64 ug/mL and gentamycin 32 ug/mL, overnight 37° C.
Method: (§1) As non-pathogenic E. coli are among the bacteria normally present in chickens' gastrointestinal tracts, potential antibiotic resistance selection markers in challenge APEC strains were identified by conducting antibiograms of each APEC strain in the library of APEC strains using a previously described micro-broth dilution method. 90 μL of Brain Heart Infusion broth was aliquoted into each well of 96-well plates. Antibiotics (specifically, kanamycin, gentamycin, neomycin, nalidixic acid, streptomycin, and ampicillin) were added to wells in order to establish an antibiotic concentration gradient spanning across each antibiotic's minimum inhibitory concentration (MIC) as reported by NARMS. […] Following incubation, the lowest concentration of each antibiotic that prevented visible bacterial growth was recorded as the MIC for that antibiotic. MICs were confirmed for each APEC strain by plating each strain on sorbitol-MacConkey agar supplemented with antibiotics at the determined MICs and incubating plates overnight at 37° C. The challenge APEC strain was then selected by incubating samples from chicken ceca on sorbitol-MacConkey agar supplemented with antibiotics at the determined MICs and incubating these samples overnight at 37° C. […]

APEC serotype O2:H4 = experiment: Lytic capacity of the six-phage treatment compared with antibiotics (OD600); format: cell-based, Escherichia coli; conditions: APEC O2:H4, antibiotic at its minimum inhibitory concentration (NARMS), 1-4 hours
Method: The six APEC strains were individually inoculated into LB broth and incubated at 37° C. until they reached log-phase growth. Phages were added to the log-phase culture of their APEC host at an MOI of 10, and subsequent bacterial concentrations were determined by measuring the absorbance (OD600) of the culture at 1, 2, 3, and 4 hours post-phage application. One flask containing only bacterial culture was included as a negative control. Additional flasks containing both bacterial cultures and antibiotics (specifically, gentamycin sulfate, kanamycin sulfate, nalidixic acid, or chloramphenicol) at their respective minimum inhibitory concentrations (National Antibiotic Resistance Monitoring System (NARMS) 2019, antibiotics tested by NARMS) were included as positive controls. These lytic capacity experiments were conducted in triplicate for each of the phage types and their respective host APEC strains.

APEC strain O2:H4 = experiment: Antibiogram by micro-broth dilution (MIC); format: cell-based, Escherichia coli; conditions: confirmed on sorbitol-MacConkey agar
Method: as §1

Molecule | growth of all other bacteria in the cecal samples [1] | OD600 readings of antibiotic-treated APEC cultures over time (APEC serotype O2:H4) | antibiotic concentration at which APEC strain O2:H4 is resistant (APEC strain O2:H4) [µg/mL]
gentamycin | prohibit the growth | increased over time | 32
[H]/N=C(/N)N[C@H]1[C@H](O)[C@@H](O)[C@H](O[C@@H]2O[C@@H](C)[C@](O)(C=O)[C@H]2O[C@@H]2O[C@@H](CO)[C@H](O)[C@@H](O)[C@@H]2NC)[C@@H](N/C(N)=N\[H])[C@@H]1O [streptomycin] | prohibit the growth |  | 64
